In PubChem BioAssay (NCI):
Values joined by “and” are separate entries in the source; they are usually repeats but may differ in a detail not shown here. Equal values may be shown once.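 1) Cells in 96-well plates. 2) Compound, 48 h, 5 concentrations. 3) Linear interpolation between surrounding doses. 4) Unreached endpoint = highest concentration. At the GI50, growth is halved. The concentration for full growth arrest is given as TGI.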

Legend:
Assay in all cases: NCI anticancer screen, dose series, 48 h
[1] = system: K-562 leukemia
[2] = system: 786-0 renal
[3] = system: MDA-N
[4] = system: SNB-19 CNS
[5] = system: NCI/ADR-RES ovarian
[6] = system: SK-MEL-5 melanoma
[7] = system: SK-OV-3 ovarian
[8] = system: SF-295 CNS
[9] = system: MCF7 breast
[10] = system: SK-MEL-28 melanoma
[11] = system: RXF 393 renal
[12] = system: COLO 205 colon
[13] = system: HCC-2998 colon
[14] = system: HCT-15 colon
[15] = system: EKVX NSCLC
[16] = system: MDA-MB-435

| Compound | TGI [1] [µM] | TGI [2] [µM] | TGI [3] [µM] | TGI [4] | TGI [5] [µM] | TGI [6] [µM] | TGI [7] [µM] | TGI [8] | TGI [9] [µM] | TGI [10] [µM] | TGI [11] [µM] | TGI [12] [µM] | TGI [13] [µM] | TGI [14] [µM] | TGI [15] [µM] | TGI [16] [µM] | GI50 [1] | GI50 [3] | GI50 [4] |
| --- | --- | --- | --- | --- | --- | --- | --- | --- | --- | --- | --- | --- | --- | --- | --- | --- | --- | --- | --- |
| c1ccc(CSC(SCc2ccccc2)c2ccc3c(c2)OCO3)cc1 | > 10 | > 10 | > 10 | > 10 µM | > 10 | > 10 | > 10 | > 10 µM | > 10 | > 10 | > 10 | > 10 | > 10 | > 10 | > 10 |  |  |  |  |
| Cc1[nH]c2ccccc2c1C1=CC(=O)N(c2ccccc2)C1=O | 29.8 | 31.4 |  | > 100 µM | > 100 | 21.9 | > 100 | > 100 µM | 48.1 | 20.5 | 26.6 | > 100 | 7.38 | 34.5 | 83.9 | > 100 |  |  |  |
| O=C1Nc2ccc(Br)cc2/C1=C/C(=O)c1ccccc1 | > 100 | 3.28 |  | 37.7 µM |  | 41.7 | 31.9 | 32.5 µM | 15.3 | 32.1 | 5.45 | 3.97 | 29 | 6.51 | 28.6 | 42 |  |  |  |
| C=CCC1C2CCC(O[Si](C(C)C)(C(C)C)C(C)C)(C(C(=O)OC)C2)C1O (stereo not given) | > 100 | > 100 | > 100 | > 100 µM | > 100 | > 100 | > 100 | > 100 µM | > 100 | > 100 |  | > 100 |  | > 100 | > 100 | > 100 |  |  |  |
| Cc1nc2nn(C)cc2c(=O)n1/N=C/c1ccccc1 | > 100 | > 100 |  | > 100 µM |  | > 100 | > 100 | > 100 µM |  | > 100 | > 100 | > 100 | > 100 | > 100 | > 100 |  |  |  |  |
| COc1nc(OC)nc(Sc2ccc(Sc3ccc(Sc4nc(OC)nc(OC)n4)cc3)cc2)n1 | > 100 | > 100 |  | > 100 µM |  | > 100 | > 100 | > 100 µM |  | > 100 | > 100 | > 100 | > 100 | > 100 | > 100 |  |  |  |  |
| CC(Nc1n[nH]c(=O)c2c1nnn2Cc1ccccc1)c1ccccc1 (stereo not given) | > 100 | 30.1 | > 100 | > 100 µM and 66.2 µM | > 100 | > 100 |  | > 100 µM and 61.1 µM | > 100 | > 100 |  | > 100 | > 100 | > 100 | > 100 | > 100 | > 100 µM and 22.8 µM | > 100 µM and 32.3 µM | > 100 µM and 21.7 µM |
| COc1ccccc1Cn1[nH]c(=O)c2cc([N+](=O)[O-])ccc21 | > 100 | > 100 | > 100 | > 100 µM | > 100 | > 100 |  |  |  | > 100 | 82.6 | > 100 | > 100 | > 100 | > 100 | > 100 |  |  |  |
| O=C1Cc2ccccc2CCc2ccsc21 | > 100 | > 100 |  | > 100 µM |  | > 100 | > 100 | > 100 µM |  | > 100 | > 100 | > 100 | > 100 | > 100 | > 100 |  |  |  |  |
| Cc1cc(C)nc(NS(=O)(=O)c2ccc(NC(=O)c3cccc4c(N)c5ccccc5nc34)cc2)n1 | > 100 | > 100 |  | > 100 µM |  | > 100 | > 100 | > 100 µM |  | > 100 | > 100 | > 100 | > 100 | > 100 | > 100 |  |  |  |  |
| O=C1c2c(ccc3c2CCCC3)CC1Cc1ccc2c(c1)CCCC2 (stereo not given) | > 100 | > 100 | > 100 | > 100 µM |  | > 100 | > 100 | > 100 µM | > 100 | > 100 | 78.5 | > 100 | > 100 | > 100 | > 100 | > 100 |  |  |  |
| COc1ccc(/C=C(\Cl)c2ccc(OC)cc2)cc1 | > 100 | > 100 |  | > 100 µM |  | > 100 | > 100 |  |  | > 100 |  | > 100 | > 100 |  | > 100 |  |  |  |  |
| COc1cc2c(cc1OCCCCN1CCN(CCCCOc3cc4c(cc3OC)C(=O)N3CCC[C@H]3C=N4)CC1)N=C[C@@H]1CCCN1C2=O | > 11.3 | 41.1 |  |  | 16.5 | 0.0476 | > 100 | 0.242 µM | 45 |  | 0.507 | 0.0354 |  |  | 7.85 | 0.165 |  |  |  |
| CSc1nc(C)c(CCCl)c(Cl)n1 | > 100 | > 100 | > 100 | > 100 µM | > 100 | > 100 | > 100 | > 100 µM |  | > 100 | > 100 | > 100 | > 100 | > 100 | > 100 | > 100 |  |  |  |
| CSc1nc(-c2ccc(Cl)cc2)c(C#N)c(=O)[nH]1 | > 100 | > 100 |  | > 100 µM | > 100 | > 100 | > 100 | > 100 µM | > 100 | > 100 | > 100 | > 100 | > 100 | > 100 | > 100 | > 100 |  |  |  |
| CC[C@H](C)[C@H]1NC(=O)[C@@H](NC(=O)[C@@H](CC(C)C)N(C)C(=O)C2CCCN2C(=O)[C@H](C)O)[C@@H](C)OC(=O)[C@H](Cc2ccccc2)N(C)C(=O)[C@@H]2CCCN2C(=O)[C@H](CC(C)C)NC(=O)[C@@H](C)C(=O)[C@H](C(C)C)OC(=O)C[C@@H]1O (stereo not given in full) | > 62.5 | 0.0119 | 0.109 | < 0.00625 µM | 1.6 |  | 0.101 | 0.0134 µM | 0.0641 | 0.00828 | 0.0179 | 0.0769 | 0.00678 | 0.556 | 0.524 |  |  |  |  |
